Among the data in patent US10196369B2, “Spirocyclic EBI2 modulators” (Sanford Burnham Prebys Medical Discovery Institute, priority 2013, dated 2019) are IC50 values, retold here.

Chain of EBI2 (P32249 whole entry): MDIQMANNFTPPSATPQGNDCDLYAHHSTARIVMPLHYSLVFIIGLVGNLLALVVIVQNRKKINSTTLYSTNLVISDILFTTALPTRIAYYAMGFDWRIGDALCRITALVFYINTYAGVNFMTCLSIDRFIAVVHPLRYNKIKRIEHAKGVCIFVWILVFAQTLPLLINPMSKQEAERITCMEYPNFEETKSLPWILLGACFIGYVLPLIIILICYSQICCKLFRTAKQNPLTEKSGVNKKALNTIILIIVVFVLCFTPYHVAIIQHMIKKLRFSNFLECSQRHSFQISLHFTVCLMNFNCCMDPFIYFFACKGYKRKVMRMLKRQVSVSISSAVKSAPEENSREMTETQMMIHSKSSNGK

This assay addresses EBI2 (Homo sapiens, UniProt P32249). In words: Cell-based luminescent assay of EBI2 modulation (7a,25-OHC stimulated). Conditions: 7a,25-OHC final assay concentration 80 nM, 60 minute incubation. The method, then:
To assess EBI2 modulation, the compounds described herein were assayed in the following cell-based luminescent assay:
1) Plated 600 cells/well in 4 μL of assay media into columns 1-48 of a 1536-well assay plate, using a liquid dispenser.
2) Centrifuged plates at 1000 rpm for 1 minute and covered with lids.
3) Incubated overnight at 37° C., 100% relative humidity, 5% CO2.
1) Centrifuged compound plates containing compounds described herein at 500 rpm for 1 minute.
2) Added compounds into assay plate col 5-48 to final concentration 4-5 uM. Added matching amount of DMSO to positive and negative control wells in columns 1-4.
3) Dispensed 2 uL/well of assay media to columns 1-2 for the positive control wells.
4) Added 2 uL/well of 400 nM 7a,25-OHC (final assay concentration=80 nM) in assay media to columns 3-48 for the negative control and test compound wells.
5) Centrifuged plates at 1000 rpm for 1 minute and re-lid plates.
6) Incubated plates at 37° C., 100% relative humidity, 5% CO2 for 60 minutes.
7) Following 60 minute incubation, delivered 2.5 uL of Detection Reagent solution to each assay plate (Columns 1-48) using a liquid handler.
8) Centrifuged plates at 2000 rpm for 2 minutes and re-lid plates.
9) Incubated plates for 60 minutes at 25 degrees in the dark.
10) Read plates using the Viewlux, Envision or other suitable plate reader using a luminescence detection.
The experimental values were normalized by the difference between values from neutral and stimulator control wells in each plate. Then normalized data was corrected to remove systematic plate patterns due to artifacts such as dispensing tip issues etc.
A word on the IC50: it is the concentration that inhibits the measured activity by half. A high value points to a need for much substance. `O=C(/C=C/c1ccc(Br)cc1)N1CCC2(CC1)CN(C(=O)/C=C/c1ccc(Br)cc1)C2` [Compound C1, (2E)-1-{7-[(2E)-3-(4-bromophenyl)prop-2-enoyl]-2,7-diazaspiro[3.5]non-2-yl}-3-(4-bromophenyl)prop-2-en-1-one]: the IC50 is < 100 nM.
To `O=C(/C=C/c1ccc(Br)cc1)N1CC2(CCN(C(=O)c3cccc(Br)c3)CC2)C1` [Compound C2, (2E)-3-(4-bromophenyl)-1-{7-[(3-bromophenyl)carbonyl]-2,7-diazaspiro[3.5]non-2-yl}prop-2-en-1-one] belongs < 100 nM; to `O=C(C#Cc1ccc(Cl)cc1)N1CC2(CCN(C(=O)c3ccc(F)cc3)CC2)C1` [Compound C3, 3-(4-chlorophenyl)-1-{7-[(4-fluorophenyl)carbonyl]-2,7-diazaspiro[3.5]non-2-yl}prop-2-yn-1-one], 100 to 500 nM; to `O=C(c1cc2cc(Cl)ccc2[nH]1)N1CCC2(CC1)CN(Cc1cccc(F)c1)C2` [Compound C4, 5-chloroindol-2-yl 2-[(3-fluorophenyl)methyl]-2,7-diazaspiro[3.5]non-7-yl ketone], < 100 nM.
To `O=C(c1ccc(F)cc1)N1CC2(CCN(C(=O)c3cc4cc(Cl)ccc4[nH]3)CC2)C1` [Compound C5, 5-chloroindol-2-yl 2-[(4-fluorophenyl)carbonyl]-2,7-diazaspiro[3.5]non-7-yl ketone] belongs < 100 nM.
Regarding `O=C(/C=C/c1ccc(Br)cc1)N1CCC2(CC1)CN(Cc1ccc(Cl)cc1)C2` [Compound C6, (2E)-3-(4-bromophenyl)-1-{2-[(4-chlorophenyl)methyl]-2,7-diazaspiro[3.5]non-7-yl}prop-2-en-1-one], the IC50 is < 100 nM.
As for `O=C(/C=C/c1ccc(Br)cc1)N1CCC2(CC1)CN(C(=O)c1ccccc1)C2` [Compound C7, (2E)-3-(4-bromophenyl)-1-[2-(phenylcarbonyl)-2,7-diazaspiro[3.5]non-7-yl]prop-2-en-1-one], the IC50 is < 100 nM.
To `O=C(/C=C/c1ccc(Br)cc1)N1CCC2(CC1)CN(Cc1ccc(F)cc1)C2` [Compound C8, (2E)-3-(4-bromophenyl)-1-{2-[(4-fluorophenyl)methyl]-2,7-diazaspiro[3.5]non-7-yl}prop-2-en-1-one] belongs < 100 nM; to `COc1ccc(C(=O)N2CC3(CCN(C(=O)/C=C/c4ccc(Br)cc4)CC3)C2)cc1OC` [Compound C9, (2E)-1-{2-[(3,4-dimethoxyphenyl)carbonyl]-2,7-diazaspiro[3.5]non-7-yl}-3-(4-bromophenyl)prop-2-en-1-one], < 100 nM.
`O=C(/C=C/c1ccc(Br)cc1)N1CCC2(CC1)CN(C(=O)c1cc(Cl)cc(Cl)c1)C2` [Compound C10, (2E)-1-{2-[(3,5-dichlorophenyl)carbonyl]-2,7-diazaspiro[3.5]non-7-yl}-3-(4-bromophenyl)prop-2-en-1-one]: the 50% inhibitory concentration (IC50) is < 100 nM.
To `O=C(/C=C/c1ccc(Br)cc1)N1CCC2(CC1)CN(Cc1c(Cl)cccc1Cl)C2` [Compound C11, (2E)-1-{2-[(2,6-dichlorophenyl)methyl]-2,7-diazaspiro[3.5]non-7-yl}-3-(4-bromophenyl)prop-2-en-1-one] belongs < 100 nM.
With `Cc1cccc(C(=O)N2CC3(CCN(C(=O)/C=C/c4ccc(Br)cc4)CC3)C2)c1` [Compound C12, (2E)-3-(4-bromophenyl)-1-{2-[(3-methylphenyl)carbonyl]-2,7-diazaspiro[3.5]non-7-yl}prop-2-en-1-one], the IC50 is < 100 nM.
To `O=C(c1ccc(C(F)(F)F)c(F)c1)N1CC2(CCN(C(=O)c3cc4cc(Cl)ccc4[nH]3)CC2)C1` [Compound C13, 5-chloroindol-2-yl 2-{[3-fluoro-4-(trifluoromethyl)phenyl]carbonyl}-2,7-diazaspiro[3.5]non-7-yl ketone] belongs 100 to 500 nM; to `O=C(c1cc2cc(Cl)ccc2[nH]1)N1CCC2(CC1)CN(Cc1ccc(C(F)(F)F)c(F)c1)C2` [Compound C14, 5-chloroindol-2-yl 2-{[3-fluoro-4-(trifluoromethyl)phenyl]methyl}-2,7-diazaspiro[3.5]non-7-yl ketone], 100 to 500 nM.
In the case of `O=C(c1cc2cc(Cl)ccc2[nH]1)N1CCC2(CC1)CN(Cc1ccc(C(F)(F)F)cc1)C2` [Compound C15, 5-chloroindol-2-yl 2-{[4-(trifluoromethyl)phenyl]methyl}-2,7-diazaspiro[3.5]non-7-yl ketone], the IC50 was in the range of 100 to 500 nM.
For the molecule `O=C(c1ccc(-c2nnn[nH]2)cc1)N1CC2(CCN(C(=O)c3cc4cc(Cl)ccc4[nH]3)CC2)C1` [Compound C16, 5-chloroindol-2-yl 2-[(4-(1H-1,2,3,4-tetraazol-5-yl)phenyl)carbonyl]-2,7-diazaspiro[3.5]non-7-yl ketone], the concentration for half-maximal inhibition (IC50) lay in the range of 500 to 5000 nM.
To `O=C(c1cc2cc(Cl)ccc2[nH]1)N1CCC2(CC1)CN(Cc1ccc(F)cc1)C2` [Compound C17, 5-chloroindol-2-yl 2-[(4-fluorophenyl)methyl]-2,7-diazaspiro[3.5]non-7-yl ketone] belongs < 100 nM.
Consider `O=C(c1ccc(C(F)(F)F)c(F)c1)N1CCC2(CC1)CN(C(=O)c1cc3cc(Cl)ccc3[nH]1)C2` [Compound C18, 5-chloroindol-2-yl 7-{[3-fluoro-4-(trifluoromethyl)phenyl]carbonyl}-2,7-diazaspiro[3.5]non-2-yl ketone], for which the IC50 is < 100 nM.
Turning to `O=C(/C=C/c1ccc(Br)cc1)N1CC2(CCN(C(=O)c3ccc(Cl)cc3)CC2)C1` [Compound C19, (2E)-3-(4-bromophenyl)-1-{7-[(4-chlorophenyl)carbonyl]-2,7-diazaspiro[3.5]non-2-yl}prop-2-en-1-one], the IC50 is < 100 nM.
The value for `O=C(/C=C/c1ccc(Br)cc1)N1CC2(CCN(C(=O)c3ccc(F)cc3)CC2)C1` [Compound C20, (2E)-3-(4-bromophenyl)-1-{7-[(4-fluorophenyl)carbonyl]-2,7-diazaspiro[3.5]non-2-yl}prop-2-en-1-one] was < 100 nM.
Take `O=C(/C=C/c1ccc(Br)cc1)N1CC2(CCN(C(=O)c3ccc(C(F)(F)F)cc3)CC2)C1` [Compound C21, (2E)-3-(4-bromophenyl)-1-(7-{[4-(trifluoromethyl)phenyl]carbonyl}-2,7-diazaspiro[3.5]non-2-yl)prop-2-en-1-one]: the IC50 is < 100 nM.
With `O=C(/C=C/c1ccc(Br)cc1)N1CC2(CCN(C(=O)c3ccc(F)c(C(F)(F)F)c3)CC2)C1` [Compound C22, (2E)-3-(4-bromophenyl)-1-(7-{[4-fluoro-3-(trifluoromethyl)phenyl]carbonyl}-2,7-diazaspiro[3.5]non-2-yl)prop-2-en-1-one], the IC50 is < 100 nM.
In turn, `O=C(/C=C/c1ccc(Br)cc1)N1CC2(CCN(C(=O)c3ccc(-c4nnn[nH]4)cc3)CC2)C1` [Compound C23, (2E)-3-(4-bromophenyl)-1-{7-[(4-(1H-1,2,3,4-tetraazol-5-yl)phenyl)carbonyl]-2,7-diazaspiro[3.5]non-2-yl}prop-2-en-1-one] came in with an IC50 of 100 to 500 nM.
Consider `O=C(/C=C/c1ccc(Br)cc1)N1CC2(CCN(Cc3cc(C(F)(F)F)cc(C(F)(F)F)c3)CC2)C1` [Compound C24, (2E)-1-(7-{[3,5-bis(trifluoromethyl)phenyl]methyl}-2,7-diazaspiro[3.5]non-2-yl)-3-(4-bromophenyl)prop-2-en-1-one], for which the IC50 was in the range of 100 to 500 nM.
